{"source": "patent US4676822A", "about": "“Fluid fertilizers containing thiophosphoryl triamide” (Tennessee Valley Authority, priority 1986, dated 1987)", "key": {"urease [1]": {"tested_on": "urease", "conditions": "prior art; cited from earlier work"}, "urease [2]": {"tested_on": "urease", "test": "Urease inhibition tests with TPTA and PPDA in fluid fertilizers, banded soil system (urease-active Hastings silt loam)", "format": "biochemical", "conditions": "for average % urea unhydrolyzed, 3 days / % urea unhydrolyzed, 3 days: 3 days incubation at 25° C.; for average % urea unhydrolyzed, 3 days / average % urea unhydrolyzed, 6 days: average of A and B samples; for % urea unhydrolyzed, 3 days / % urea unhydrolyzed, 6 days: single sample; for average % urea unhydrolyzed, 6 days / % urea unhydrolyzed, 6 days: 6 days incubation at 25° C.", "description": "Samples of UAN (31-0-0), 1 g, and (36-0-0), 0.66 g containing approximately 0.38 g urea and 0.041 g of TPTA were prepared by dissolving solid TPTA in 31-0-0 and 36-0-0 of the compositions shown in Table I, supra. Identical samples containing PPDA and without either inhibitor were prepared to serve as references for purposes of data comparison.\nUrease-active soil (Hastings silt loam) was moistened to a moisture content of 20 percent and preincubated at room temperature for two days. Plexiglass containers (6×6×6 cm) were one-half filled with soil and packed to a bulk density of 1.0 g/cm^3. The 31-0-0 and 36-0-0 samples containing TPTA and PPDA as well as samples containing no inhibitor were distributed evenly in a narrow band 6 cm along the soil surface. The containers were filled with soil and again packed to a bulk density of 1.0 g/cm^3. The containers were incubated at 25° C. for the desired reaction period. After incubation the soil from each container was thoroughly mixed, and a 10-g sample was extracted with 100 mL of 2M KCl containing 5 ppm phenylmercuric acetate to prevent urea hydrolysis during handling [L. A. Douglass and J. M. Bremner, Soil Sci. Soc. Am. Proc. 34, 859-862 (1970)]. The urea in the extracts was determined colorimetrically as a measure of unhydrolyzed urea. The results of three-day and six-day incubation tests are illustrated in Table II infra; and as noted supra, plotted in FIG. 1."}, "[3]": {"conditions": "solid mixtures with urea, 25° C.; cited from earlier work"}, "[4]": {"conditions": "25° C., cited from earlier work; for first-order reaction half-life: UAN (31-0-0)"}, "[5]": {"conditions": "compared with PPDA; cited from earlier work"}, "[6]": {"conditions": "25° C., water partial pressure 12.73 mm of Hg; cited from earlier work"}}, "note": "“And” between values parts separate entries of the source, which are not always exact repeats. Identical values can stand only once. Like-named read-outs stand apart in the source and are kept apart here."}
{"smiles": "NP(N)(=O)O", "note": "[DAPA, diamidophosphoric acid]", "values": [{"measurement": "urease inhibition (in words)", "setting": "urease [1]", "value": "are urease inhibitors"}]}
{"smiles": "NP(=O)(O)O", "note": "[MAPA, monoamido phosphoric acid]", "values": [{"measurement": "urease inhibition (in words)", "setting": "urease [1]", "value": "are urease inhibitors"}]}
{"smiles": "NP(N)(=O)Oc1ccccc1", "note": "[PPDA, phenyl phosphorodiamidate, reference compound]", "values": [{"measurement": "average % urea unhydrolyzed, 3 days", "setting": "urease [2]; UAN (31-0-0)", "value": 83.36, "unit": "%"}, {"measurement": "% urea unhydrolyzed, 3 days", "setting": "urease [2]; UAN (31-0-0)", "value": "83.64% and 83.09%"}, {"measurement": "average % urea unhydrolyzed, 6 days", "setting": "urease [2]; UAN (31-0-0)", "value": 12.61, "unit": "%"}, {"measurement": "% urea unhydrolyzed, 6 days", "setting": "urease [2]; UAN (31-0-0)", "value": "14.03% and 11.20%"}, {"measurement": "average % urea unhydrolyzed, 3 days", "setting": "urease [2]; UAN (36-0-0)", "value": "85.73% and 84%"}, {"measurement": "% urea unhydrolyzed, 3 days", "setting": "urease [2]; UAN (36-0-0)", "value": "86.22% and 81.24%"}, {"measurement": "average % urea unhydrolyzed, 6 days", "setting": "urease [2]; UAN (36-0-0)", "value": "11.32% and 11%"}, {"measurement": "% urea unhydrolyzed, 6 days", "setting": "urease [2]; UAN (36-0-0)", "value": "12.10% and 10.53%"}, {"measurement": "half-life of PPDA in mixtures with urea", "setting": "[3]", "value": 0.9, "unit": "years"}, {"measurement": "first-order reaction half-life", "setting": "[4]; pH 6.46", "value": 146, "unit": "h"}, {"measurement": "first-order reaction half-life", "setting": "[4]; pH 8.14", "value": 28.8, "unit": "h"}, {"measurement": "decomposition rate constant", "setting": "[4]; UAN (36-0-0) saturated with PPDA", "value": "10.2 percent decomposition per day"}, {"measurement": "decomposition rate constant", "setting": "[4]; UAS (29-0-0-5S) saturated with PPDA", "value": "20.5 percent decomposition per day"}, {"measurement": "urease inhibition (in words)", "setting": "urease [1]", "value": "extremely potent inhibitor of urease activity"}]}
{"smiles": "NP(N)(N)=O", "note": "[PTA, phosphoryl triamide]", "values": [{"measurement": "stability in urea melt", "setting": "[5]", "value": "much less stable in urea melt than PPDA"}, {"measurement": "reaction half-life in solid mixtures with urea", "setting": "[6]", "value": 4.3, "unit": "h"}]}
